Test results as given in PMC12679539, “Synthesis and evaluation of nitroheterocyclic aromatic adamantane amides with trypanocidal activity. Part II” (RSC Medicinal Chemistry, 2025).
Read-outs that look alike come from different tables or passages of the source.

How the values were obtained:
[1] = tested on: L6 cells; experiment: Cytotoxic activity against rat skeletal myoblast L6 cells (Alamar Blue); assay type: cell-based; conditions: 120 h, cytotoxicity, 5 days
Method: The cytotoxicity against mammalian cells was assessed using microtitre plates. Briefly, L6 cells (a rat skeletal muscle line) were seeded at 1 × 10^4 mL^−1 in 200 μL of RPMI-1640 growth medium (with 10% fetal calf serum) containing 7 different compound concentrations in a range previously established to encompass both the IC50 and IC90 values. The plates were incubated for 5 days at 37 °C and 20 μL Alamar Blue (Biosource Ltd, Wilton, North Yorkshire England.) was then added to each well. After an additional 8 hours incubation, the fluorescence was determined using a Gemini fluorescent plate reader (Molecular Devices). Inhibition of growth was calculated by comparison with control values and IC50 and IC90 values were determined in triplicate using linear regression analysis.

[2] = tested on: bloodstream-form Trypanosoma brucei; experiment: Activity against bloodstream-form Trypanosoma brucei (Alamar Blue growth inhibition); assay type: cell-based, Trypanosoma brucei (strain 427); conditions: for S.I. (selectivity index): ratio of IC50 values obtained with L6 cells and T. brucei
Method: (§1) Bloodstream form T. brucei (strain 427) were cultured at 37 °C in modified Iscove's medium. Trypanocidal activity was assessed by growing parasites in microtiter plates in the presence of various drug concentrations. […] The plates were incubated for 48 hours at 37 °C and 20 μL Alamar Blue was then added to each well. After an additional overnight incubation, the fluorescence was determined using a Gemini fluorescent plate reader (Molecular Devices). Inhibition of growth was calculated by comparison with control values and IC50 and IC90 values were determined in triplicate using linear regression analysis.

[3] = tested on: T. cruzi epimastigotes; experiment: Activity against Trypanosoma cruzi epimastigotes (Alamar Blue growth inhibition); assay type: cell-based, Trypanosoma cruzi (strain CL Brener); conditions: CL Brener
Method: as §1, with “Trypanocidal” for “Bloodstream form T. brucei (strain 427) were cultured at 37 °C in modified Iscove's medium. Trypanocidal”, “4 days” for “48 hours”, “28” for “37”, “Blue (Biosource UK Ltd)” for “Blue”, “3 days” for “overnight”

[4] = tested on: L. infantum promastigotes; experiment: Activity against Leishmania infantum promastigotes (resazurin assay); assay type: cell-based, Leishmania infantum (MHOM/MA/67/ITMAP-263); conditions: for IC50: Leishmania infantum, promastigotes, 72 h, 95% CI in brackets
Method: Promastigotes from the L. infantum strain (MHOM/MA/67/ITMAP-263) were cultivated in 5 ml of Schneider's insect medium, which was supplemented with 10% heat-inactivated fetal bovine serum (FBS), 200 U ml^−1 of penicillin/streptomycin, 6 μg ml^−1 of phenol red, and 5 mM of HEPES. The cultures were maintained in an incubator at 27 °C and diluted to a concentration of 2 × 10^5 cells per ml every 5 days. For the assays the parasites used were equivalent to late/log with two or three days of culture.
The efficacy of the compounds against L. infantum promastigotes was evaluated using a resazurin-based assay. Parasites were added to 100 μl of serial dilutions of the compounds in supplemented complete medium at a cell density of 5 × 10^5 ml^−1. As a quality control, a dose–response curve with the antileishmanial drug miltefosine was included in all assays. The final volume of each assay was 200 μl per well, and each condition was tested in duplicate. After a 72-hour incubation under specific conditions for each parasite, 20 μl of a 0.5 mM resazurin solution was added, and the plates were incubated for an additional 4 hours under the same conditions. Fluorescence was measured at 544 nm for excitation and 590 nm for emission using a Synergy 2 Multi-Mode Reader (Biotek, Winooski, VT, USA). Results were expressed as the percentage of parasite growth inhibition compared to controls (untreated parasites) and represent the average of at least three independent experiments. The effect was evaluated by determining the IC50 value (the concentration required to inhibit 50% growth), calculated using non-linear regression curves via GraphPad Prism version 8.1.1 for Windows (GraphPad Software, San Diego, CA, USA).

[5] = Cytotoxicity on THP-1-derived macrophages (MTT assay); assay type: cell-based; conditions: human, THP-1-derived macrophages (PMA-differentiated), value or interval
Method: The THP-1 cell line, a human leukemia line (ATCC® TIB-202™), was cultured in RPMI-1640 medium supplemented with 10% heat-inactivated fetal bovine serum (FBS), 2 mM. L-Glutamine, 100 IU mL^−1 penicillin/streptomycin, and 20 mM HEPES. The cells were maintained in a humidified incubator at 37 °C with 5% CO2. Subculturing was performed every three days, using 20 mL of media at a concentration of 2 × 10^5 cells per mL in a T75 flask. All cell culture reagents were purchased from Lonza Bioscience (Morrisville, NC).
The cytotoxicity of the compounds on THP-1-derived macrophages was evaluated using the colorimetric MTT assay (3-(4,5-dimethylthiazol-2-yl)-2,5-diphenyltetrazolium bromide), as described in Magoulas et al. (2021).[28] THP-1 cells were suspended in complete RPMI medium at a density of 1 × 10^6 cells per mL, and 100 μL of this suspension was seeded into each well of a 96-well plate. The cells were differentiated into macrophages by adding 40 ng mL^−1 of phorbol-myristate 13-acetate (PMA, Sigma, Saint Louis, MI, USA) for 24 hours, followed by replacement with fresh medium for an additional 24 hours. Subsequently, the cells were incubated with 100 μL of various compounds, diluted in complete RPMI medium, at concentrations ranging from 100 to 12.5 μM. Each condition was tested in triplicate. After 72 hours of incubation at 37 °C with 5% CO2, the medium was removed, and 200 μL of a 0.5 mg mL^−1 MTT solution, diluted in RPMI, was added to each well. The plates were incubated for an additional 4 hours. Following this incubation, 160 μL of the medium was removed and replaced with 160 μL of 2-propanol. Absorbance was measured at 570 nm using a Synergy 2 Multi-Mode Reader (Biotek, Winooski, VT, USA). Cytotoxicity was determined by presenting the CC50 (the concentration of the drug that reduces cell viability by 50%) interval or by calculating the CC50 value through non-linear regression analysis using GraphPad Prism version 8.1.1 for Windows (GraphPad Software, San Diego, CA, USA). The results represent the average of at least three independent experiments.

[6] = tested on: L. infantum intracellular amastigotes; experiment: Activity against intracellular L. infantum amastigotes in THP-1 derived macrophages (luciferase); assay type: cell-based, Leishmania infantum (MHOM/MA/67/ITMAP-263); conditions: for inhibition at 10 µM / IC50: Leishmania infantum; for inhibition at 10 µM: read-out: L. infantum (intracellular amastigotes) % of growth inhibition at 10 μM ± ST DEV; for IC50: read-out: L. infantum (intracellular amastigotes) IC50 (μM), 95% CI
Method: Leishmania infantum Luciferase-expressing L. infantum (strain MHOM/MA/67/ITMAP-263) axenic amastigotes were cultured in MAA/20 medium at 37 °C with 5% CO2, as described by Sereno et al. 1998.[26] The parasites were maintained in 5 mL T25 ventilated flasks and subcultured every seven days at a concentration of 1 × 10^6 cells per mL.
The activity against intracellular amastigotes of L. infantum was evaluated using a modified method described by Santarem, Tavares, and Cordeiro-da-Silva (2019).[27] THP-1 cells were differentiated into macrophages using PMA, as previously outlined. The differentiated macrophages were then infected with L. infantum axenic amastigotes expressing episomal luciferase at a macrophage-to-amastigote ratio of 1 : 10 for four hours at 37 °C in a 5% CO2 atmosphere. After this incubation, non-internalized parasites were washed away, and various concentrations of test compounds were added in a final volume of 100 μL. A dose–response curve for miltefosine was included in all assays to serve as a quality control. Each experimental condition was tested in quadruplicate. After 72 hours of incubation, the medium was replaced with 100 μL of PBS, and 25 μL of Glo-lysis buffer from the Steady-Glo Luciferase Assay System (Promega, Madison, WI, USA) was added. The plates were then agitated at 100 rpm for 10 minutes at room temperature. Following this, 30 μL of the Steady-Glo reagent (Promega, Madison, WI, USA) was added, and the mixture was incubated for 15 minutes in the dark under the same conditions. A total of 140 μL from each well was transferred to white-bottom 96-well plates, and luminescence intensity was measured using a Synergy 2 Multi-Mode Reader (Biotek, Winooski, VT, USA). The antileishmanial effect was assessed by comparing the results with those from non-treated infected cells. The IC50 value were determined through non-linear regression analysis using GraphPad Prism version 8.1.1 for Windows (GraphPad Software, San Diego, CA, USA). Results represent the average of at least three independent experiments.

[7] = tested on: L6 cells; design: method as in PMID 26479031; conditions: cytotoxicity; cited from earlier work
[8] = tested on: T. cruzi intracellular amastigotes; experiment: microbe, parasite or virus in culture; assay type: cell-based, Trypanosoma cruzi CL Brener PpyRE9h:mScarlet; conditions: Trypanosoma cruzi, 120 h; in HeLa cells, 5 days
Method: Assays were performed in 96-well black (clear bottom) microtitre plates (Corning Inc.). HeLa ^† cells were seeded at 10^4 per well, incubated for 3 days, and then infected with T. cruzi CL Brener PpyRE9h : mScarlet[25] culture form trypomastigotes (1 : 1 multiplicity of infection). After 16 hours, extracellular parasites were removed by washing in growth medium (×3), test compounds were added, and the plates incubated for 5 days. Fluorescence intensities were then determined using a BMG FLUOstar Omega plate reader (ex 545 nm, em 590 nm), and the data analysed using GraphPad Prism 9.0 software. The values were expressed as IC50/90 ± SD and are the mean of triplicate experiments.

[9] = tested on: bloodstream-form Trypanosoma brucei; conditions: read-out: T. brucei IC50; cited from earlier work
[10] = tested on: T. cruzi epimastigotes; conditions: read-out: T. cruzi (epimastigotes) IC50; cited from earlier work

With `O=C(NCc1ccc(C2C3CC4CC(C3)CC2C4)cc1)c1ccc([N+](=O)[O-])o1` (centres unmarked) [2b, N-[4-(2-Adamantyl)benzyl]-5-nitrofuran-2-carboxamide] the IC50 [1] was 1600 ± 100 nM, the IC50 ([2]; Trypanosoma brucei, bloodstream form, concentration that inhibits growth by 50%, read-out: T. brucei IC50) was 17 ± 3 nM and the IC90 ([2]; Trypanosoma brucei, bloodstream form, concentration that inhibits growth by 90%, read-out: T. brucei IC90) was 31 ± 1 nM. For the same compound, the “S.I. (selectivity index)” value [2] was 95, the IC50 [3] was 560 ± 20 nM and the IC90 [3] was 1200 ± 20 nM. It also gave an IC50 [4] of 0.09 µM, a CC50 at 72 h [5] of 12500 to 25000 nM and an inhibition at 10 µM ([6]; THP-1, 72 h) of 84.6 ± 15.6%. For the same compound, the IC50 ([6]; THP-1, 72 h) was 3.97 µM.

For `O=C(Cn1ccnc1[N+](=O)[O-])NCc1ccccc1` [Bzn, benznidazole, reference compound], the IC50 [3] is given as 5400 ± 200 nM, the IC50 [7] is given as 510000 ± 22000 nM and the IC50 [8] is given as 1040 ± 320 nM. For the same compound, the IC90 [8] was 2540 ± 810 nM.

With `CCCCCCCCCCCCCCCCOP(=O)([O-])OCC[N+](C)(C)C` [MF, miltefosine, reference compound] the IC50 [4] was 11.9 µM, the “SI (promastigotes) CC50/Li IC50” value ([4]; THP-1 CC50 / L. infantum promastigote IC50) was 2.5 and the CC50 at 72 h [5] was 30000 nM. The inhibition at 10 µM ([6]; THP-1, 72 h) was 92 ± 5%, the IC50 ([6]; THP-1 derived macrophages, 72 h, 95% CI in brackets) was 2.65 µM and the “SI (intracellular amastigotes) CC50/Li ia IC50” value ([6]; THP-1 CC50 / L. infantum intracellular amastigote IC50) was 11.3.

In the case of `CC1CS(=O)(=O)CCN1/N=C/c1ccc([N+](=O)[O-])o1` (centres unmarked) [Nfx, nifurtimox], the “S.I. (selectivity index)” value [2] is listed as 7, the IC50 [9] is listed as 4400 ± 700 nM and the IC50 [10] is listed as 3100 ± 500 nM.
